How the values were obtained:
Format in all cases: cell-based
[1] = system: Escherichia coli ATCC 25922; experiment: Broth microdilution MIC, E. coli ATCC 25922 (MHIIB w & w/o 4 mM EDTA); conditions: broth microdilution, 37° C., 20 hours; for MIC: Escherichia coli, ATCC25922, without EDTA, read-out: MIC E. coli ATCC 25922; for MIC E. coli ATCC 25922 + 4 mM EDTA: with 4 mM EDTA
Summary of the method: (§1)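 Two-fold dilutions from 64 to 0.0625 μg/ml final, 1% DMSO, were inoculated at ~5.0×10^5 cfu/ml in the strain's test medium and kept 20 h at 37 °C in ambient atmosphere. Colonies were grown on MHA, with S. pneumoniae on blood agar under 5% CO2.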

[2] = system: Enterococcus faecium ATCC 700221 (VRE); experiment: Broth microdilution MIC, E. faecium ATCC 700221 (VRE); conditions: Enterococcus faecium; broth microdilution, 37° C., 20 hours; read-out: MIC E. faecium ATCC 700221 (VRE)
Summary of the method: as §1

[3] = system: Enterococcus faecalis ATCC 29212; experiment: Broth microdilution MIC, E. faecalis ATCC 29212; conditions: ATCC29212, broth microdilution, 37° C., 20 hours, read-out: MIC E. faecalis ATCC 29212
Summary of the method: as §1

[4] = system: Staphylococcus aureus NRS384 (MRSA); experiment: Broth microdilution MIC, S. aureus NRS384 (MRSA); conditions: Staphylococcus aureus; broth microdilution, 37° C., 20 hours; read-out: MIC NRS 384 (MRSA)
Summary of the method: as §1

[5] = system: Bacillus subtilis ATCC 6633; experiment: Broth microdilution MIC, B. subtilis ATCC 6633; conditions: ATCC6633, broth microdilution, 37° C., 20 hours, read-out: MIC B. subtilis ATCC 6633
Summary of the method: as §1

[6] = system: Staphylococcus aureus ATCC 29213 (MSSA); experiment: Broth microdilution MIC, S. aureus ATCC 29213 (MSSA); conditions: broth microdilution, 37° C., 20 hours, read-out: MIC S. aureus ATCC 29213 (MSSA)
Summary of the method: as §1

[7] = system: Streptococcus pneumoniae ATCC 49619; experiment: Broth microdilution MIC, S. pneumoniae ATCC 49619; conditions: ATCC49619, broth microdilution, 37° C., 20 hours, read-out: MIC S. pneumoniae ATCC 49619
Summary of the method: as §1

Structure (SMILES)	MIC [1] [mg/L]	MIC E. coli ATCC 25922 + 4 mM EDTA [1] [mg/L]	MIC [2] [mg/L]	MIC [3] [mg/L]	MIC [4] [mg/L]	MIC [5] [mg/L]	MIC [6] [mg/L]	MIC [7] [mg/L]
Cl.O=C(c1ccccn1)N1CCC(n2ncc3nc(NCc4ccc(Cl)c(Cl)c4)[nH]c(=O)c32)C1 (centres unmarked) [Compound 257, 5-((3,4-Dichlorobenzyl)amino)-1-(1-picolinoylpyrrolidin-3-yl)-1H-pyrazolo[4,3-d]pyrimidin-7(6H)-one]	> 64	>64	4	8	4	2	4	4
Cl.O=C(c1cccnc1)N1CCC(n2ncc3nc(NCc4ccc(Cl)c(Cl)c4)[nH]c(=O)c32)C1 (centres unmarked) [Compound 258, 5-((3,4-Dichlorobenzyl)amino)-1-(1-nicotinoylpyrrolidin-3-yl)-1H-pyrazolo[4,3-d]pyrimidin-7(6H)-one]	> 64	>64	4	8	8	2	8	4
Cl.O=C(c1ccncc1)N1CCC(n2ncc3nc(NCc4ccc(Cl)c(Cl)c4)[nH]c(=O)c32)C1 (centres unmarked) [Compound 259, 5-[(3,4-Dichlorophenyl)methylamino]-1-[1-(pyridine-4-carbonyl)pyrrolidin-3-yl]-6H-pyrazolo[4,3-d]pyrimidin-7-one]	> 64	>64	4	4	8	2	8	4
COc1cncc(C(=O)N2CCC(n3ncc4nc(NCc5ccc(Cl)c(Cl)c5)[nH]c(=O)c43)CC2)c1.Cl [Compound 260, 5-((3,4-Dichlorobenzyl)amino)-1-(1-(5-methoxynicotinoyl)piperidin-4-yl)-1H-pyrazolo[4,3-d]pyrimidin-7(6H)-one hydrochloride]	> 64	>64	2	4	4	1	4	4
Cc1cncc(C(=O)N2CCC(n3ncc4nc(NCc5ccc(Cl)c(Cl)c5)[nH]c(=O)c43)CC2)c1.Cl [Compound 261, 5-((3,4-Dichlorobenzyl)amino)-1-(1-(5-methylnicotinoyl)piperidin-4-yl)-1H-pyrazolo[4,3-d]pyrimidin-7(6H)-one hydrochloride]	> 64	>64	2	4	4	1	4	4
Cc1cccnc1C(=O)N1CCC(n2ncc3nc(NCc4ccc(Cl)c(Cl)c4)[nH]c(=O)c32)CC1.Cl [Compound 262, 5-((3,4-Dichlorobenzyl)amino)-1-(1-(3-methylpicolinoyl)piperidin-4-yl)-1H-pyrazolo[4,3-d]pyrimidin-7(6H)-one hydrochloride]	> 64	>64	2	4	4	1	4	4
COc1ccnc(C(=O)N2CCC(n3ncc4nc(NCc5ccc(Cl)c(Cl)c5)[nH]c(=O)c43)CC2)c1.Cl [Compound 263, 5-((3,4-dichlorobenzyl)amino)-1-(1-(4-methoxypicolinoyl)piperidin-4-yl)-1H-pyrazolo[4,3-d]pyrimidin-7(6H)-one hydrochloride]	> 64	>64	1	4	2	1	4	2
Cc1ccnc(C(=O)N2CCC(n3ncc4nc(NCc5ccc(Cl)c(Cl)c5)[nH]c(=O)c43)CC2)c1.Cl [Compound 264, 5-((3,4-Dichlorobenzyl)amino)-1-(1-(4-methylpicolinoyl)piperidin-4-yl)-1H-pyrazolo[4,3-d]pyrimidin-7(6H)-one hydrochloride]	> 64	>64	1	4	2	1	4	4
Cl.O=C(c1nnc[nH]1)N1CCC(n2ncc3nc(NCc4ccc(Cl)c(Cl)c4)[nH]c(=O)c32)CC1 [Compound 265, 1-(1-(4H-1,2,4-triazole-3-carbonyl)piperidin-4-yl)-5-((3,4-dichlorobenzyl)amino)-1H-pyrazolo[4,3-d]pyrimidin-7(6H)-one hydrochloride]	> 64	>64	4	4	8	4	8	4
COc1ccncc1C(=O)N1CCC(n2ncc3nc(NCc4ccc(Cl)c(Cl)c4)[nH]c(=O)c32)CC1.Cl [Compound 266, 5-((3,4-Dichlorobenzyl)amino)-1-(1-(4-methoxynicotinoyl)piperidin-4-yl)-1H-pyrazolo[4,3-d]pyrimidin-7(6H)-one hydrochloride]	> 64	>64	2	4	8	2	8	4
Cc1ccncc1C(=O)N1CCC(n2ncc3nc(NCc4ccc(Cl)c(Cl)c4)[nH]c(=O)c32)CC1.Cl [Compound 267, 5-((3,4-Dichlorobenzyl)amino)-1-(1-(4-methylnicotinoyl)piperidin-4-yl)-1H-pyrazolo[4,3-d]pyrimidin-7(6H)-one hydrochloride]	> 64	>64	2	4	4	1	4	4

More lines, now with the values ahead:

MIC [1] [mg/L]	MIC E. coli ATCC 25922 + 4 mM EDTA [1] [mg/L]	MIC [2] [mg/L]	MIC [3] [mg/L]	MIC [4] [mg/L]	MIC [5] [mg/L]	MIC [6] [mg/L]	MIC [7] [mg/L]	Structure (SMILES)
> 64	>64	4	8	8	2	8	4	COc1cccnc1C(=O)N1CCC(n2ncc3nc(NCc4ccc(Cl)c(Cl)c4)[nH]c(=O)c32)CC1.Cl [Compound 268, 5-((3,4-Dichlorobenzyl)amino)-1-(1-(3-methoxypicolinoyl)piperidin-4-yl)-1H-pyrazolo[4,3-d]pyrimidin-7(6H)-one hydrochloride]
> 64	>64	2	4	4	1	4	4	Cl.O=C(c1ncc[nH]1)N1CCC(n2ncc3nc(NCc4ccc(Cl)c(Cl)c4)[nH]c(=O)c32)CC1 [Compound 269, 1-(1-(1H-imidazole-2-carbonyl)piperidin-4-yl)-5-((3,4-dichlorobenzyl)amino)-1H-pyrazolo[4,3-d]pyrimidin-7(6H)-one hydrochloride]
> 64	>64	4	8	16	4	16	8	Cl.O=C(c1cnc[nH]1)N1CCC(n2ncc3nc(NCc4ccc(Cl)c(Cl)c4)[nH]c(=O)c32)CC1 [Compound 270, 1-(1-(1H-imidazole-5-carbonyl)piperidin-4-yl)-5-((3,4-dichlorobenzyl)amino)-1H-pyrazolo[4,3-d]pyrimidin-7(6H)-one hydrochloride]
> 64	>64	4	4	8	2	8	4	Cl.O=C(c1cc[nH]n1)N1CCC(n2ncc3nc(NCc4ccc(Cl)c(Cl)c4)[nH]c(=O)c32)CC1 [Compound 271, 1-(1-(1H-pyrazole-3-carbonyl)piperidin-4-yl)-5-((3,4-dichlorobenzyl)amino)-1H-pyrazolo[4,3-d]pyrimidin-7(6H)-one hydrochloride]
> 64	>64	2	4	8	4	16	8	Cl.O=C(c1cn[nH]n1)N1CCC(n2ncc3nc(NCc4ccc(Cl)c(Cl)c4)[nH]c(=O)c32)CC1 [Compound 272, 1-(1-(2H-1,2,3-triazole-4-carbonyl)piperidin-4-yl)-5-((3,4-dichlorobenzyl)amino)-1H-pyrazolo[4,3-d]pyrimidin-7(6H)-one hydrochloride]

— patent US10723741B1, “DNA polymerase IIIC inhibitors and use thereof” (Acurx Pharmaceuticals, LLC, priority 2018, dated 2020)
